Test results as given in US20110275685A1, “SALT AND POLYMORPHS OF A KINESIN INHIBITOR COMPOUND” (priority 2009, published 2011).
Where a name gives a salt, the structure may show the parent alone. Read-outs that look alike come from different tables or passages of the source.

Key:
[1] = Solid state stability of the salts (HPLC, colour); conditions: Bulk (HPLC)
Source text: Tests for solid state stability were made for the mesylate, tosylate and hippurate salts as prepared above.

[2] = Weight loss on drying by thermogravimetry (hygroscopicity); assay type: physicochemical; conditions: for hygroscopicity: judged from weight loss as prepared vs 1 day at 92% relative humidity
Source text: The weight loss (%) on drying, measured by thermogravimetry, of the salt as prepared was 1.12%. If kept for 1 day at 92% relative humidity, the weight loss was 1.71%.
The weight loss (%) on drying, measured by thermogravimetry, of the salt as prepared was 2.08%. If kept for 1 day at 92% relative humidity, the weight loss was 2.21%.
The weight loss (%) on drying, measured by thermogravimetry, of the salt as prepared was 1.76%. If kept for 1 day at 92% relative humidity, the weight loss was 2.14%.

[3] = Stability of liquid formulations of the salts; conditions: for stability in DMSO: either diluted or not
Method: From the mesylate, tosylate and hippurate salts as prepared above, liquid formulations were prepared by dissolving/suspending these salts in a solvent/suspension medium. Stability tests were made on these liquid formulations. The amount of degradation products and the degree of discoloration were established.

[4] = Solubility of the obtained material; assay type: physicochemical; conditions: thermodynamic from solid
Method: 2.40 g of amorphous N-((S)-3-amino-4-fluorobutyl)-N-((R)-1-(1-benzlyl-4-(2,5-difluoro-phenyl)-1H-imidazol-2-yl)-2,2-dimethylpropyl)-2-hydroxyacetamide were dissolved at 50° C. in 9 ml acetonitrile/water 95:5 v/v having a water activity of 0.6, and stirred. Within about 1 minute, a suspension was formed. Another 6 ml of acetonitrile/water 95:5 v/v were added. Subsequently, the suspension was cooled to room temperature in about 1 hour and stirred for 14 hours. Then, the suspension was filtered and air dried for about 5 minutes. Yield: 1.82 g (75%). The obtained material was analyzed by X-ray diffraction (FIG. 1).

[5] = 2 weeks, 50° C., tight container
[6] = Xenon light (approx. 1200 kLuxh)
[7] = 0.1% solutions or suspensions, 1 week, 50° C., Methanol
[8] = 0.1% solutions or suspensions, 1 week, 50° C., pH 3
[9] = 0.1% solutions or suspensions, 1 week, 50° C., pH 4.5
[10] = 0.1% solutions or suspensions, 1 week, 50° C., pH 5
[11] = 0.1% solutions or suspensions, 1 week, 50° C., pH 7
[12] = 2% solutions or suspensions, 1 day, room temperature, DMSO
[13] = 2% solutions or suspensions, 1 day, room temperature, Dilution pH 6.8 (diluted with buffer 1:100)
[14] = 5% solutions, 1 day, room temperature, DMSO
[15] = 5% solutions, 1 day, room temperature, Dilution pH 6.8

| Amount of degradation products [%] ([1]; 2 weeks, 50° C., 75% r.h.) | Amount of degradation products [%] [1, 5] [%] | Amount of degradation products [%] [1, 6] [%] | hygroscopicity [2] | Amount of degradation products [%] [3, 7] [%] | Amount of degradation products [%] [3, 8] [%] | Amount of degradation products [%] [3, 9] [%] | Amount of degradation products [%] [3, 10] [%] | Amount of degradation products [%] [3, 11] [%] | Amount of degradation products [%] [3, 12] [%] | Amount of degradation products [%] [3, 13] [%] | Amount of degradation products [%] [3, 14] [%] | Amount of degradation products [%] [3, 15] [%] | stability in DMSO [3] | Compound | further results |
| --- | --- | --- | --- | --- | --- | --- | --- | --- | --- | --- | --- | --- | --- | --- | --- |
| 1.02 | 0.79 | 0.43 | low hygroscopicity | 11.81 | 0.48 | 1.03 | 1.80 | 5.32 | 0.78 | 0.82 | 0.94 | 0.84 | very stable | CC(C)(C)[C@H](c1nc(-c2cc(F)ccc2F)cn1Cc1ccccc1)N(CC[C@H](N)CF)C(=O)CO [Hippurate, N-((S)-3-amino-4-fluorobutyl)-N-((R)-1-(1-benzlyl-4-(2,5-difluorophenyl)-1H-imidazol-2-yl)-2,2-dimethylpropyl)-2-hydroxyacetamide] | weight loss (%) on drying, measured by thermogravimetry ([2]; kept for 1 day at 92% relative humidity, listed as hippurate salt): 2.14%; weight loss (%) on drying, measured by thermogravimetry ([2]; salt as prepared, listed as hippurate salt): 1.76% |
| <0.05 | 0.07 | <0.05 | low hygroscopicity | 0.21 | 0.25 | 0.69 | 0.71 | 3.87 | 0.07 | 0.19 | <0.05 | 0.30 | very stable | CC(C)(C)[C@H](c1nc(-c2cc(F)ccc2F)cn1Cc1ccccc1)N(CC[C@H](N)CF)C(=O)CO [Mesylate, N-((S)-3-amino-4-fluorobutyl)-N-((R)-1-(1-benzlyl-4-(2,5-difluorophenyl)-1H-imidazol-2-yl)-2,2-dimethylpropyl)-2-hydroxyacetamide] | weight loss (%) on drying, measured by thermogravimetry ([2]; kept for 1 day at 92% relative humidity, listed as mesylate salt): 2.21%; weight loss (%) on drying, measured by thermogravimetry ([2]; salt as prepared, listed as mesylate salt): 2.08%; stability in methanol ([3]; in methanol): very stable |
|  |  |  | low hygroscopicity |  |  |  |  |  |  |  |  |  |  | CC(C)(C)[C@H](c1nc(-c2cc(F)ccc2F)cn1Cc1ccccc1)N(CC[C@H](N)CF)C(=O)CO [Tosylate, N-((S)-3-amino-4-fluorobutyl)-N-((R)-1-(1-benzlyl-4-(2,5-difluorophenyl)-1H-imidazol-2-yl)-2,2-dimethylpropyl)-2-hydroxyacetamide] | weight loss (%) on drying, measured by thermogravimetry ([2]; kept for 1 day at 92% relative humidity, listed as tosylate salt): 1.71%; weight loss (%) on drying, measured by thermogravimetry ([2]; salt as prepared, listed as tosylate salt): 1.12%; Amount of degradation products [%] (1 week, 0.1 %): 0.35%; Amount of degradation products [%] (1 week, 0.1 %, pH 3): 0.27%; Amount of degradation products [%] (1 week, 0.1 %, pH 4.5): 0.59%; Amount of degradation products [%] (1 week, 0.1 %, pH 5): 1.81%; Amount of degradation products [%] (1 week, 0.1 %, pH 7): 7.60%; Amount of degradation products [%] (1 day, 0.02 %, pH 6.8): 0.33%; Amount of degradation products [%] (1 day, 2 %): 0.14%; Amount of degradation products [%] (1 day, 5 %): 0.15%; Amount of degradation products [%] (1 day, pH 6.8): 0.11% |
|  |  |  |  |  |  |  |  |  |  |  |  |  |  | CC(C)(C)[C@H](c1nc(-c2cc(F)ccc2F)cn1Cc1ccccc1)N(CC[C@H](N)CF)C(=O)CO [crystalline form D, N-((S)-3-amino-4-fluorobutyl)-N-((R)-1-(1-benzlyl-4-(2,5-difluorophenyl)-1H-imidazol-2-yl)-2,2-dimethylpropyl)-2-hydroxyacetamide mesylate] | solubility ([4]; 0.1 N HCl, pH 1, simulated gastric fluid, read-out: solubility in 0.1 N HCl): 1400 µg/mL; solubility ([4]; buffer pH 6.8, pH 6.8, aqueous buffer, read-out: solubility in buffer with pH 6.8): 10 µg/mL; solubility ([4]; water, read-out: solubility in water): 4400 µg/mL |
